Measured values published in patent US8188078B2 (Sanofi-Aventis, priority 2007, dated 2012).
Counter-ions that a name gives are not always drawn.

Biological target: T1, MET (Homo sapiens, UniProt P08581)
T1 construct: endogenous in cells; host or cells: MKN45 cells
Assay: Test C: inhibition of the autophosphorylation of MET, ELISA technique (pppY1230, 1234, 1235), MKN45 cells
Type: cell-based
Outline: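 MKN45 cells adhered 24 h, then treated 1 h with compound at 6 concentrations in duplicate, final range 10000 to 30 nM. Lysates assayed by phospho-MET (pY1230/1234/1235) sandwich ELISA with HRP chromogen read at 450 nm.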

T1 sequence (P08581 25-1390): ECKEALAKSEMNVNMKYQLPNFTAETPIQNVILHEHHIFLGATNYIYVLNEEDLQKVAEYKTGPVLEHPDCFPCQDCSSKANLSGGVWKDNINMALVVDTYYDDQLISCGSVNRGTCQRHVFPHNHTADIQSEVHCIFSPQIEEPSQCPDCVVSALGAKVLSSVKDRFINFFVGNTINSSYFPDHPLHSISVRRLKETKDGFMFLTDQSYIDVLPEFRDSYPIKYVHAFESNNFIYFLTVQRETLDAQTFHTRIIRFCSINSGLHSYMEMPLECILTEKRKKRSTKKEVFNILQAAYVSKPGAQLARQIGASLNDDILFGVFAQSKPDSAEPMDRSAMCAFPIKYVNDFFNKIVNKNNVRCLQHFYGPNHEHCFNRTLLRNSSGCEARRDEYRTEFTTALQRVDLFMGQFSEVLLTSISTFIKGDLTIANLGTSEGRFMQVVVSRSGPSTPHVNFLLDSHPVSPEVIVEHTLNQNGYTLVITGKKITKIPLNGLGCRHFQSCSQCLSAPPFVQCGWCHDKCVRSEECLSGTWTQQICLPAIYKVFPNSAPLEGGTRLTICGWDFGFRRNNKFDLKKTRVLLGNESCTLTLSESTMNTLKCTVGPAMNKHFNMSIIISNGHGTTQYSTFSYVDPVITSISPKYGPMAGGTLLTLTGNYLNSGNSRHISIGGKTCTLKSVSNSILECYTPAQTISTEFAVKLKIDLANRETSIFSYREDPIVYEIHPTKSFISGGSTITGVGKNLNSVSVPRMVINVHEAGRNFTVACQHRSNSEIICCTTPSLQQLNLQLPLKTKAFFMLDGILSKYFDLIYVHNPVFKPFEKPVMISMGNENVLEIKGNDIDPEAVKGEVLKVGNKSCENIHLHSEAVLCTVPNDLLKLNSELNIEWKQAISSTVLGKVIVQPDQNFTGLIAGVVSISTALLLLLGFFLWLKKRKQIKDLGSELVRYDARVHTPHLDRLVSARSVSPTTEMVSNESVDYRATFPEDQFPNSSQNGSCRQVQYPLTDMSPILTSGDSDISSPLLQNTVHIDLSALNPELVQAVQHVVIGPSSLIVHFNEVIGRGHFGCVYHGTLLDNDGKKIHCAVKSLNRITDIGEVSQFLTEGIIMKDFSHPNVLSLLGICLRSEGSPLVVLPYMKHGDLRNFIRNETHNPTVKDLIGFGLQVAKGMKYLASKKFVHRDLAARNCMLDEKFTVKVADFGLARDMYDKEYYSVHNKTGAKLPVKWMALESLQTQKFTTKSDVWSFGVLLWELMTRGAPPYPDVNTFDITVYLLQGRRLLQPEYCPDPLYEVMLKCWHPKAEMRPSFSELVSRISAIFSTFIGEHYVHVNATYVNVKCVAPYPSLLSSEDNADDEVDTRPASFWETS

Row | IC50 | Compound
1 | 500 to 10000 nM | CC(Oc1ccc2nc(NC(=O)NCCN3CCOCC3)[nH]c2c1)c1c(Cl)ccc(F)c1Cl (stereo not drawn) [Example 4, 4-{2-[({6-[1-(2,6-Dichloro-3-fluorophenyl)ethoxy]-1H-benzimidazol-2-yl}carbamoyl)amino]ethyl}morpholin-4-ium trifluoroacetate]
2 | < 500 nM | CC(Oc1ccc2nc(NC(=O)NCCN3CCCCCC3)sc2c1)c1c(Cl)ccc(F)c1Cl (stereo not drawn) [Example 54, 1-(2-azepan-1-ylethyl)-3-{6-[1-(2,6-dichloro-3-fluorophenyl)ethoxy]-1,3-benzothiazol-2-yl}urea]
3 | < 500 nM | CCN1CCN(CCNC(=O)Nc2nc3cc(F)c(OC(C)c4c(Cl)ccc(F)c4Cl)cc3s2)CC1 (single isomer, unassigned) [Example 101, 1-{6-[(1R*)-1-(2,6-dichloro-3-fluorophenyl)ethoxy]-5-fluoro-1,3-benzothiazol-2-yl}-3-[2-(4-ethylpiperazin-1-yl)ethyl]urea]
4 | < 500 nM | CC(Oc1ccc2nc(NC(=O)NCCC3CCCN3C)sc2c1)c1c(Cl)ccc(F)c1Cl (stereo not drawn) [Example 53, 1-{6-[1-(2,6-dichloro-3-fluorophenyl)ethoxy]-1,3-benzothiazol-2-yl}-3-[2-(1-methylpyrrolidin-2-yl)ethyl]urea]
5 | < 500 nM | CC(Oc1ccc2nc(NC(=O)NCCCN3CCCCC3)sc2c1)c1c(Cl)ccc(F)c1Cl (stereo not drawn) [Example 44, 1-{6-[1-(2,6-dichloro-3-fluorophenyl)ethoxy]-1,3-benzothiazol-2-yl}-3-(3-piperidin-1-ylpropyl)urea]
6 | 500 to 10000 nM | CC(Oc1ccc2nc(NC(=O)NCCN3CCOCC3)sc2c1)c1c(F)cccc1F (stereo not drawn) [Example 18, 1-{6-[1-(2,6-difluorophenyl)ethoxy]-1,3-benzothiazol-2-yl}-3-(2-morpholin-4-ylethyl)urea]
7 | < 500 nM | CC(Oc1ccc2nc(NC(=O)NCCC3CCNCC3)sc2c1)c1c(Cl)ccc(F)c1Cl (stereo not drawn) [Example 39, 1-{6-[1-(2,6-Dichloro-3-fluorophenyl)ethoxy]-1,3-benzothiazol-2-yl}-3-(2-piperidin-4-ylethyl)urea trifluoroacetate]
8 | 500 to 10000 nM | CC(Oc1ccc2nc(NC(=O)NCCCN3CCN(Cc4c(F)cccc4Cl)CC3)sc2c1)c1c(Cl)ccc(F)c1Cl (stereo not drawn) [Example 46, 1-{3-[4-(2-chloro-6-fluorobenzyl)piperazin-1-yl]propyl}-3-{6-[1-(2,6-dichloro-3-fluorophenyl)ethoxy]-1,3-benzothiazol-2-yl}urea]
9 | < 500 nM | CC(Oc1cc2sc(NC(=O)NCCN3CCN(C)CC3)nc2cc1F)c1c(F)ccc(Cl)c1Cl (single isomer, unassigned) [Example 116, 1-{6-[(1R*)-1-(2,3-dichloro-6-fluorophenyl)ethoxy]-5-fluoro-1,3-benzothiazol-2-yl}-3-[2-(4-methylpiperazin-1-yl)ethyl]urea]
10 | < 500 nM | CC(Oc1ccc2nc(NC(=O)NCCCN3CCN(Cc4ccccc4)CC3)sc2c1)c1c(Cl)ccc(F)c1Cl (stereo not drawn) [Example 49, 1-[3-(4-benzylpiperazin-1-yl)propyl]-3-{6-[1-(2,6-dichloro-3-fluorophenyl)ethoxy]-1,3-benzothiazol-2-yl}urea]
11 | < 500 nM | CC(Oc1cc2sc(NC(=O)NCCO)nc2cc1F)c1c(Cl)ccc(F)c1Cl (single isomer, unassigned) [Example 99, 1-{6-[(1R*)-1-(2,6-dichloro-3-fluorophenyl)ethoxy]-5-fluoro-1,3-benzothiazol-2-yl}-3-(2-hydroxyethyl)urea]
12 | < 500 nM | CC(Oc1cc2sc(NC(=O)NCCN3CCNC(=O)C3)nc2cc1F)c1c(Cl)ccc(F)c1Cl (stereo not drawn) [Example 130, 1-{6-[1-(2,6-dichloro-3-fluorophenyl)ethoxy]-5-fluoro-1,3-benzothiazol-2-yl}-3-[2-(3-oxopiperazin-1-yl)ethyl]urea]
13 | 500 to 10000 nM | CC(Oc1ccc2nc(NC(=O)NCCN3CCOCC3)sc2c1)c1ccccc1C(F)(F)F (stereo not drawn) [Example 19, 1-(2-morpholin-4-ylethyl)-3-(6-{1-[2-(trifluoromethyl)phenyl]ethoxy}-1,3-benzothiazol-2-yl)urea]
14 | 500 to 10000 nM | CCN1CCN(CCNC(=O)Nc2nc3cc(F)c(OC(C)c4c(Cl)ccc(F)c4Cl)cc3s2)CC1 (single isomer, unassigned) [Example 102, 1-{6-[(1S*)-1-(2,6-dichloro-3-fluorophenyl)ethoxy]-5-fluoro-1,3-benzothiazol-2-yl}-3-[2-(4-ethylpiperazin-1-yl)ethyl]urea]
15 | < 500 nM | CC(Oc1ccc2nc(NC(=O)NCCN3CCCC3)sc2c1)c1c(F)ccc(Cl)c1Cl (single isomer, unassigned) [Example 121, 1-{6-[(1R*)-(2,3-dichloro-6-fluorophenyl)ethoxy]-1,3-benzothiazol-2-yl}-3-[2-(pyrrolidin-1-yl)ethyl]urea]
16 | 500 to 10000 nM | CC(Oc1ccc2nc(NC(=O)NCCCN3C(C)CCCC3C)sc2c1)c1c(Cl)ccc(F)c1Cl (stereo not drawn) [Example 47, 1-{6-[1-(2,6-dichloro-3-fluorophenyl)ethoxy]-1,3-benzothiazol-2-yl}-3-[3-(2,6-dimethylpiperidin-1-yl)propyl]urea]
17 | < 500 nM | CC(Oc1ccc2nc(NC(=O)NCCCN3CCCCCC3)sc2c1)c1c(Cl)ccc(F)c1Cl (stereo not drawn) [Example 48, 1-(3-azepan-1-ylpropyl)-3-{6-[1-(2,6-dichloro-3-fluorophenyl)ethoxy]-1,3-benzothiazol-2-yl}urea]
18 | 500 to 10000 nM | C[C@@H](Oc1cc2sc(NC(=O)NCCN3CCOCC3)nc2cc1F)c1c(Cl)ccc(F)c1Cl (single isomer, unassigned) [Example 33, 1-{6-[(1R)-(2,6-dichloro-3-fluorophenyl)ethoxy]-5-fluoro-1,3-benzothiazol-2-yl}-3-(2-morpholin-4-ylethyl)urea or 1-{6-[(1S)-(2,6-dichloro-3-fluorophenyl)ethoxy]-5-fluoro-1,3-benzothiazol-2-yl}-3-(2-morpholin-4-ylethyl)urea]
19 | < 500 nM | CC(Oc1cc2sc(NC(=O)NCCN3CCOCC3)nc2cc1F)c1c(F)ccc(Cl)c1Cl (single isomer, unassigned) [Example 113, 1-{6-[(1S*)-1-(2,3-dichloro-6-fluorophenyl)ethoxy]-5-fluoro-1,3-benzothiazol-2-yl}-3-[2-(morpholin-4-yl)ethyl]urea]
20 | 500 to 10000 nM | CC(Oc1ccc2nc(NC(=O)NCc3ccncc3)sc2c1)c1c(Cl)ccc(F)c1Cl (stereo not drawn) [Example 57, 1-{6-[1-(2,6-dichloro-3-fluorophenyl)ethoxy]-1,3-benzothiazol-2-yl}-3-(pyridin-4-ylmethyl)urea]
21 | 500 to 10000 nM | {6-[1-(2,6-dichloro-3-fluorophenyl)ethoxy]-5-fluoro-1,3-benzothiazol-2-yl}2-(pyrrolidin-1-yl)ethyl carbamate [Example 73]
22 | < 500 nM | CC(Oc1cc2sc(NC(=O)NCCN3CCOCC3)nc2cc1F)c1c(F)ccc(Cl)c1Cl (single isomer, unassigned) [Example 112, 1-{6-[(1R*)-1-(2,3-dichloro-6-fluorophenyl)ethoxy]-5-fluoro-1,3-benzothiazol-2-yl}-3-[2-(morpholin-4-yl)ethyl]urea]
23 | 500 to 10000 nM | CC(Oc1ccc2nc(NC(=O)NCCCn3cccc3)sc2c1)c1c(Cl)ccc(F)c1Cl (stereo not drawn) [Example 40, 1-{6-[1-(2,6-dichloro-3-fluorophenyl)ethoxy]-1,3-benzothiazol-2-yl}-3-[3-(1H-pyrrol-1-yl)propyl]urea]

Row | Compound | IC50
24 | CC(Oc1ccc2nc(NC(=O)OCCN3CCOCC3)sc2c1)c1c(Cl)ccc(F)c1Cl (stereo not drawn) [Example 74] | < 500 nM
